# Measured values: US20130195866A1, “METHODS TO INHIBIT NEURODEGENERATION” (priority 2010, published 2013)
# Ends that are not written are not given here.
# How the values were obtained:
# [1] = system: wild-type neurons; experiment: Baseline maturation of wild-type neurons; format: cell-based, mouse; conditions: VIVIT 2 μM or DMSO
# Description: The findings presented herein indicate that nuclear accumulation of NFATc4 occurs in neurons from Tg cultures and in human AD postmortem brain and that Aβ-containing CM from Tg culture is capable of inducing CaN-mediated NFATc4 nuclear localization in wild-type neurons. […] Thus, inhibition of CaN-NFAT interaction and subsequent NFAT nuclear accumulation by VIVIT (SEQ ID NO: 7) blocks TgCM or APP overexpression-induced morphological abnormalities in culture.
# [2] = system: calcineurin; conditions: Macian 2005; cited from earlier work
# [3] = system: wild-type cultured neurons growing in TgCM; experiment: TgCM-induced morphological abnormalities in wild-type cultured neurons; format: cell-based, mouse
# [4] = system: NFATc4; experiment: NFATc4 nuclear translocation (nucleus/cytoplasm ratio) induced by TgCM in wild-type cultured neurons; format: cell-based, mouse; conditions: wild-type neurons treated with TgCM for 24 h; VIVIT 2 μM
# Method: Immunocytochemistry was performed as described previously in Wu et al. (2004). Briefly, after being treated under different experimental conditions, cells were fixed with 4% paraformaldehyde in PBS, pH 7.4, for 15 min and were then membrane permeabilized with 0.5% Triton X-100 in PBS for 5 min. After blocking with 3% bovine serum albumin at 37° C. for 1 h, cells were incubated with primary antibodies: anti-microtubule-associated protein 2 (MAP2) antibody (1: 200; Sigma), or anti-NFATc4 antibody (1:200; Santa Cruz Biotechnology), anti-HA antibody (1:200; Invitrogen), or anti-Flag antibody (1:200; Sigma), at 4° C. overnight. […] Nuclear NFATc4 staining was determined by overlap of NFATc4 staining with Hoechst nuclear staining. […]
# Soluble plaque-associated bioactive molecules, possibly assemblies of Aβ, may be responsible for the “halo” effect of neuritic change and [Ca^2+]i alterations near plaques (Kuchibhotla et al., 2008; Meyer-Luehmann et al., 2008; Koffie et al., 2009). […] (NFATc4 and MAP2 images used for quantification of nucleus/cytoplasm ratio of NFATc4 are not shown.) To better characterize the specific role of Aβ oligomers in CaN-mediated NFATc4 activation, nondenaturing size exclusion chromatography (SEC) was used to isolate the various Aβ species from TgCM. […]
# [5] = system: Tg2576 neurons; experiment: APP overexpression-induced morphological abnormalities in Tg cultures at 21 DIV; format: cell-based, mouse
# [6] = system: wild-type cultured neurons; experiment: CaNCA overexpression-induced abnormal morphology in wild-type cultured neurons; format: cell-based, mouse; conditions: for spine density: 15 DIV primary neurons transfected with wtCaN+GFP or CaNCA+GFP (DMSO or VIVIT in medium) or CaNCA+GFP+AKAP79; for GFP-positive neurons with local neuritic dystrophies: of total GFP-positive neurons
# Method: FIGS. 10A to 10H show wild-type cultured neurons overexpressing a constitutively active CaN construct, CaNCA, develop abnormal morphology that is a phenocopy of the AD effect. […] Wild-type cultured neurons were infected with AAV-CaNwt or AAV-CaNCA with or without AAV-flag-AKAP79 for twenty-four hours, and then the cell extracts were assayed for luciferase activity. The symbol “*” indicates a p-value of less than 0.05; Data are mean±SD (n=3 experiments each). FIGS. 10B to 10G show images and quantification results of neurodegenerative morphologies observed in wild-type cultured neurons overexpressing CaNCA or a vector. Overexpression of CaNCA, but not CaNwt or vector control, into wild-type cultures induces dendritic dystrophies (FIGS. 10B and 10C; arrows in FIG. 10B indicated local swelling of dendrites), simplification of dendritic arborization (FIGS. 10D and 10E), and spine loss (FIGS. 10F and 10G). […] The symbol “*” indicates a p-value of less than 0.05; The symbol “*” in FIG. 10E indicates a p-value of less than 0.05 (CaNwt vs CaNCA). Data are mean±SD from three independent experiments, each in triplicate. […] Neurons were transfected at 10DIV and analyzed at 14DIV. A decreased spines density spines is observed when CaCA is overexpressed (15.2±1.1) compared with wtCaN (25.9±2.1). This effect was blocked by cotransfection with AKAP79 (25.6±1.0) or by the addition of VIVIT (SEQ ID NO: 7) in the medium (22±1.7). The symbol “**” indicates a p-value of less than 0.001 (ANOVA) and less than 0.05 (post-hoc Student's test). n≧15.
# (§1) To examine whether CaN activation is sufficient to cause these morphologic changes, even in the absence of overexpressed APP or exogenously applied Aβ, it was sought to investigate whether the expression of a constitutively-active CaN (CaNCA) can favor morphological changes in wild-type cultured neurons. An AAV vector encoding an HA-tagged CaNCA (AAV-CaNCA) or wild-type CaN (AAV-CaNwt) or an AAV vector control was expressed in cortical cultures. […] Neurons with swollen dendrites were barely detectable in CaNwt-overexpressing cultures, but they were prominently detected in CaNCA-overexpressing cultures (FIG. 10B). […] The latter is similar to the number of dystrophic neurites found in cultures expressing β-galactosidase, an AAV-vector control. Dendritic complexity (FIGS. 10D and 10E) and mean spine density (FIGS. 10F and 100) were reduced in neurons overexpressing CaNCA but not in CaNwt- or vector-overexpressing neurons.
# [7] = system: NFAT; conditions: in vitro; Macian 2005; cited from earlier work
# [8] = system: C57BL/6J mice; experiment: Neuronal morphology in intact brain of C57BL/6J mice after intracranial AAV injection; format: in vivo, mouse; conditions: live multiphoton imaging, compared with control vector
# Method: Intracortical injections and surgery were performed as described previously (Spires et al., 2005; Kuchibhotla et al., 2008; Meyer-Luehmann et al., 2008). Briefly, mice were anesthetized with ketamine (10 mg/kg) and xylazine (1 mg/kg) and placed in a stereotaxic apparatus. The surgical site was sterilized with betadyne and isopropyl alcohol, and a 2-3 mm incision was made in the scalp along the midline between the ears. Burr holes were drilled in the skull, 0.5 mm posterior from bregma, and 0.5 mm lateral to the midsagittal line. Using a Hamilton syringe, 3 μl of virus (titer, 4.2×10^12 viral genomes/ml) was injected 1.2 mm deep in somatosensory cortex at a rate of 0.25 μl/min. After one injection in each burr hole, the scalp was sutured, and the mouse recovered from anesthesia on a heating pad.
# Images of GFP-filled neuronal processes and, in the case of APP/PS1 mice, amyloid pathology, and blood vessels were obtained using a Bio-Rad 1024ES multiphoton microscope (Bio-Rad), mounted on an Olympus Optical BX50WI upright microscope. […] A mode-locked titanium/sapphire laser (MaiTai; Spectra Physics) generated two-photon fluorescence with 800 nm excitation, and detectors containing three photomultiplier tubes (Hamamatsu) collected emitted light in the range of 380-480, 500-540, and 560-650 nm (Bacskai et al., 2003). […]
# [9] = system: NFAT; experiment: NFAT luciferase reporter assay in cultured neurons; format: cell-based, mouse; conditions: neurons overexpressing CaNCA, with or without AAV-flag-AKAP79, 24 h
# Method: Luciferase reporter assay. CaNwt, CaNCA, or NFAT-TA-Luc (Clontech) was subcloned into AAV serotype 2 vector. These plasmids (1 μg) were used […] at 3 DIV. After 24 h, the cells were harvested and luciferase activities were measured with a luminometer using a reagent kit (Luciferase Assay System with Reporter Lysis Buffer; Promega). The background luciferase activity was subtracted from all experiments.
# as §1
# [10] = wild-type neurons growing in TgCM, VIVIT 2 μM
# [11] = Tg cultures at 21 DIV, compared with wild type
Substance,"number of neurons with dendritic dystrophies, dendritic processes and spine density [1]",competition for calcineurin binding [2],"spine density ([3]; primary neurons treated with TgCM for 24 h, 1 μM FK506, 2 μM VIVIT or AKAP79 transfection (FIG. 8I))","dendritic complexity (Sholl analysis) [3, 10]","dendritic spine density [3, 10]","number of neurons with dendritic dystrophies [3, 10]",nucleus/cytoplasm ratio of NFATc4 [4],"dendritic complexity / dendritic attenuation [5, 11]","mean spine density / spine loss [5, 11]","number of neurons with dendritic dystrophies [5, 11]","overall morphology during maturation ([5]; Tg neurons, treatment from 3 DIV (3D6, AKAP79) or VIVIT vs DMSO)",spine density [6],CaNCA overexpression-induced dendritic spine loss ([6]; wild-type cultured neurons overexpressing CaNCA),NFAT dephosphorylation [7],spine density [8],GFP-positive neurons with local neuritic dystrophies [6],NFAT-luciferase activity [9]
"VIVIT: cell-permeable VIVIT peptide that blocks the docking sites for CaN-NFAT interaction (catalog #480401; Calbiochem) (also: 11R cell-penetrating tag, position and linkage not given here)",No significant changes,compete with NFAT proteins for calcineurin binding,restored,increased dendritic complexity,increased,reduced numbers of neurons with dendritic dystrophies,abolished,prevented,prevented,prevented,dramatically improved morphology,22±1.7,virtually eliminate,block NFAT dephosphorylation,,,
CaNwt: wild type mouse CaN expressed from an AAV vector,,,,,,,,,,,,25.9±2.1,,,comparable with control vector-injected mice,6%,
"CaNCA: constitutively active truncated 45 kDa form of mouse CaN (amino acid residues 1-399), expressed from an AAV vector",,,,,,,,,,,,15.2±1.1,,,significantly decreased,Approximately 15%,significantly increased
